Results taken from publication PMC10526274, “Epithelial-Immune Cell Crosstalk Determines the Activation of Immune Cells In Vitro by the Human Cathelicidin LL-37 at Low Physiological Concentrations” (Biomolecules, 2023).
Where “and” joins values, the source holds several entries; their conditions need not be identical. Identical values can stand only once.

Tested on: Caco-2 cells
Test: Multiplex xMAP cytokine levels, Caco-2 epithelial barrier alone stimulated with LL-37
Type: cell-based, human
Conditions: Caco-2 alone, 1 µM LL-37, 24 h, n=2
Procedure: Caco-2 cell line (ATCC HTB-37) was cultured in a humidified CO2-incubator (5% CO2, 37 °C) in the complete DMEM/F12 (1:1) medium (Gibco, Waltham, MA, USA) containing 10% fetal bovine serum (FBS, Gibco) and 1X antibiotic–antimycotic solution (Gibco). To stabilize the cell phenotype, Caco-2 cells have been subcultivated three times before seeding on the filter supports. Then, Caco-2 cells were seeded at a density of 2 × 10^5 cells/cm^2 onto 24-well Millicell cell culture inserts (PC, 0.4-μm pore size, 0.6 cm^2 surface area, cat. #PIHP01250) (Millipore, Burlington, MA, USA), precoated with 0.2% bovine gelatin (Sigma-Aldrich, Saint Louis, MO, USA). After seeding, Caco-2 cells were grown in the same complete medium with re-feeding every 2–3 days until polarization of the monolayer occurred. The functional polarity of the monolayers was developed when transepithelial electrical resistance (TEER) between the apical and basolateral surfaces of the monolayers reached […] as measured by the electrical resistance system Millicell-ERS Voltohmmeter (Millipore, Burlington, MA, USA). Grown cell monolayers were used in transport and cytokine production experiments between the 21st and 29th days.
Primary blood monocytes, moDCs, and NKT cells were seeded in 600 µL of complete RPMI-1640 with 10% Human AB serum (Capricorn Scientific, Ebsdorfergrund, Germany) and supplemented with 1X antibiotic–antimycotic solution into the wells of 24-well plates at a density of 3–7 × 10^5 cells/well 24 h before the experiment. Then, 24 h later, the medium in each well was replaced by the same medium with 1 µM of LL-37 for the sample wells or fresh medium alone for the control wells, and the permeable inserts with the Caco-2 monolayer with TEER > 400 Ω × cm^2, containing 400 μL of the complete medium in their apical chamber, were immediately placed into the appropriate wells. Also, inserts with the Caco-2 monolayer were placed in cell-free wells of 24-well plates in the same complete RPMI-1640 medium with or without 1 µM of LL-37 as controls. Cells were kept in a CO2-incubator (5% CO2, 37 °C) for another 24 h. Then, culture medium from each well was collected, centrifuged, and frozen at −70 °C.
To quantitatively evaluate a broad spectrum of analytes secreted by human cell cultures at the protein level, multiplex xMAP technology was used. The chosen panel (cat. #HCYTA-60K-PX48, Merck, Darmstadt, Germany) included 48 different magnetic beads with primary antibodies to the following cytokines, chemokines, and growth factors: CCL11 (Eotaxin-1), Flt-3 ligand, CX3CL1 (Fractalkine), sCD40L, FGF-2, EGF, GROα, GM-CSF, G-CSF, IL-1RA, IL-1α, IL-1β, IL-2, IL-3, IL-4, IL-5, IL-6, IL-7, CXCL8 (IL-8), IL-9, IL-10, IL-12p40, IL-12p70, IL-13, IL-15, IL-17A (CTLA8), IL-17E (IL-25), IL-17F, IL-18, IL-22, IL-27, IFNγ, IFNα2, CXCL10 (IP-10), CCL2 (MCP-1), CCL7 (MCP-3), CCL22 (MDC), CXCL9 (MIG), CCL3 (MIP-1α), CCL4 (MIP-1β), CCL5 (RANTES), M-CSF, PDGF-AA, PDGF-AB/BB, TNFα, TNFβ, TGFα, and VEGF-A. The assay was performed in accordance with the manufacturer’s instructions with overnight incubation of the samples with primary antibodies, and the plate was read on a MAGPIX System (Merck) using the xPONENT 4.2 software (Merck). The acquired fluorescence data were analyzed by the MILLIPLEX Analyst v5.1 software (Merck), which realized an advanced curve-fitting algorithm. Levels of the analytes in control and experimental samples were compared with an unpaired two-sample t-test using GraphPad Prism v.8.0.1 (GraphPad Software, Inc., San Diego, CA, USA). The p-values ≤ 0.05 were considered significant.

**Q.** “LL-37: the only human cathelicidin, host defense antimicrobial peptide of 37 a.a. residues, produced by solid-phase peptide synthesis” was tested. Which MIP-1b level (control 0.3) did it give?
**A.** The MIP-1b level was 3.42 pg/mL.

**Q.** What about the IL-18 level (control 0.98) of the same substance?
**A.** The IL-18 level was 0.33 pg/mL.

**Q.** And the IL-9 level (control 1.09)?
**A.** The IL-9 level was 1.7 pg/mL.

**Q.** What about the IL-6 level (control 1.75) of the same substance?
**A.** Its IL-6 level is 9.84 pg/mL.

**Q.** What about the MIP-1a level (control 2.06) of the same substance?
**A.** Its MIP-1a level is 5.65 pg/mL.

**Q.** What about the EGF level (control 2.26) of the same substance?
**A.** The EGF level was <1.60↓ pg/ml.

**Q.** What about the IP-10 level (control 4.18) of the same substance?
**A.** Its IP-10 level is 2.9 pg/mL.

**Q.** And the IL-4 level (control 4.8)?
**A.** Its IL-4 level is 6.56 pg/mL.

**Q.** And the MCP-3 level (control 7.84)?
**A.** The MCP-3 level was 8.72 pg/mL.

**Q.** What about the sCD40L level (control 12.72) of the same substance?
**A.** Its sCD40L level is 23.6 pg/mL.

**Q.** And the TNFb level (control 12.91, p = 0.02)?
**A.** Its TNFb level is 18.9 pg/mL and 18.87 pg/mL.

**Q.** And the GROa level (control 18.09)?
**A.** Its GROa level is 27.89 pg/mL.

**Q.** What about the PDGF-AB/BB level (control 22.83) of the same substance?
**A.** Its PDGF-AB/BB level is 29.35 pg/mL.

**Q.** And the IL-13 level (control 25.51)?
**A.** Its IL-13 level is 32.02 pg/mL.

**Q.** And the FGF-2 level (control 25.68)?
**A.** The FGF-2 level was 16.73 pg/mL.

**Q.** What about the IL-22 level (control 27.2, p = 0.013) of the same substance?
**A.** Its IL-22 level is 39 pg/mL and 39.52 pg/mL.

**Q.** What about the IL-8 level (control 28.45, p = 0.16) of the same substance?
**A.** Its IL-8 level is 86 pg/mL and 86.32 pg/mL.

**Q.** What about the IL-27 level (control 41.5) of the same substance?
**A.** Its IL-27 level is 35.81 pg/mL.

**Q.** And the MCP-1 level (control 55.94)?
**A.** The MCP-1 level was 100.47 pg/mL.

**Q.** What about the PDGF-AA level (control 164.04) of the same substance?
**A.** Its PDGF-AA level is 149.4 pg/mL.

**Q.** And the VEGFa level (control 960.31)?
**A.** The VEGFa level was 2088 pg/mL.

**Q.** What about the IL-7 level (control <0.30) of the same substance?
**A.** The IL-7 level was <0.30↓ pg/ml.

**Q.** What about the MDC level (control <0.31) of the same substance?
**A.** The MDC level was <0.31↓ pg/ml.

**Q.** What about the IL-5 level (control <0.35) of the same substance?
**A.** Its IL-5 level is <0.35↓ pg/ml.

**Q.** And the IL-2 level (control <0.36)?
**A.** Its IL-2 level is <0.36↓ pg/ml.

**Q.** What about the FLT-3L level (control <0.51) of the same substance?
**A.** The FLT-3L level was <0.51↓ pg/ml.

**Q.** What about the IL-3 level (control <0.55) of the same substance?
**A.** The IL-3 level was <0.55↓ pg/ml.

**Q.** And the RANTES level (control <0.64)?
**A.** The RANTES level was <0.64↓ pg/ml.

**Q.** And the TGF-a level (control <0.68)?
**A.** Its TGF-a level is <0.68↓ pg/ml.

**Q.** And the IL-17A level (control <0.70)?
**A.** The IL-17A level was <0.70↓ pg/ml.

**Q.** What about the IFNg level (control <0.73) of the same substance?
**A.** Its IFNg level is <0.73↓ pg/ml.

**Q.** And the IL-1b level (control <0.74)?
**A.** The IL-1b level was <0.74↓ pg/ml.

**Q.** What about the GM-CSF level (control <0.76) of the same substance?
**A.** The GM-CSF level was <0.76↓ pg/ml.

**Q.** What about the IL-1RA level (control <0.93) of the same substance?
**A.** The IL-1RA level was <0.93↓ pg/ml.

**Q.** What about the IL-1a level (control <1.30) of the same substance?
**A.** The IL-1a level was <1.30↓ pg/ml.

**Q.** And the IL-10 level (control <1.35)?
**A.** The IL-10 level was <1.35↓ pg/ml.

**Q.** What about the IL-15 level (control <1.54) of the same substance?
**A.** The IL-15 level was <1.54↓ pg/ml.

**Q.** And the “IL-12 (p70) level” value (control <1.71)?
**A.** Its value is <1.71↓ pg/ml.

**Q.** What about the G-CSF level (control <2.32) of the same substance?
**A.** Its G-CSF level is <2.32↓ pg/ml.

**Q.** And the Eotaxin level (control <2.91)?
**A.** The Eotaxin level was <2.91↓ pg/ml.

**Q.** What about the “IL-12 (p40) level” value (control <3.33) of the same substance?
**A.** Its value is <3.33↓ pg/ml.

**Q.** What about the MIG level (control <3.38) of the same substance?
**A.** The MIG level was <3.38↓ pg/ml.

**Q.** What about the IFNa2 level (control <3.88) of the same substance?
**A.** Its IFNa2 level is <3.88↓ pg/ml.

**Q.** And the TNFa level (control <3.88)?
**A.** The TNFa level was <3.88↓ pg/ml.

**Q.** And the IL-17F level (control <12.19)?
**A.** The IL-17F level was <12.19↓ pg/ml.

**Q.** What about the Fractalkine level (control <18.09) of the same substance?
**A.** Its Fractalkine level is <18.09↓ pg/ml.

**Q.** And the IL-17E/IL-25 level (control <19.43)?
**A.** The IL-17E/IL-25 level was <19.43↓ pg/ml.

**Q.** And the M-GSF level (control <24.21)?
**A.** The M-GSF level was <24.21↓ pg/ml.
